From article PMC6099841, “New Chromane-Based Derivatives as Inhibitors of Mycobacterium tuberculosis Salicylate Synthase (MbtI): Preliminary Biological Evaluation and Molecular Modeling Studies” (Molecules : A Journal of Synthetic Chemistry and Natural …, 2018)
Where two headings read alike, the source gives them in different places.

Legend:
Assay in all cases: biochemical
salicylate synthase MbtI [1] = target: T1, salicylate synthase MbtI (Mycobacterium tuberculosis, UniProt P9WFX1)
salicylate synthase MbtI [2] = target: T1, salicylate synthase MbtI; remark: listed apart in the source
salicylate synthase MbtI [3] = target: T1, salicylate synthase MbtI; conditions: read-out: MbtI Residual Activity at 100 μM

T1 sequence (P9WFX1 whole entry): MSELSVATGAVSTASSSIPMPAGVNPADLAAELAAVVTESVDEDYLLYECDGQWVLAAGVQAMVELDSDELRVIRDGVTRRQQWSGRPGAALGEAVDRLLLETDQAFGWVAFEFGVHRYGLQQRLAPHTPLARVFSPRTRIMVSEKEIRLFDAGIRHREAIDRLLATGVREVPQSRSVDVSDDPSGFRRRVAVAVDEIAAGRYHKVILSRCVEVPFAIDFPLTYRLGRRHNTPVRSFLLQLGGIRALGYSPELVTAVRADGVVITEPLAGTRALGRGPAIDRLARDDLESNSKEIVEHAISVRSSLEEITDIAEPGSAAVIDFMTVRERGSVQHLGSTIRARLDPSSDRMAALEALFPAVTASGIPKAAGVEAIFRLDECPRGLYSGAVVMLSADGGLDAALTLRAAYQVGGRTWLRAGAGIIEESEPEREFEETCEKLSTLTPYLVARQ

SMILES: O=C(O)c1cc(O)cc2c1C(=O)CCO2 [compound 2, 7-Hydroxy-4-oxo-3,4-dihydro-2H-benzopyran-5-carboxylic acid]
- IC50 (salicylate synthase MbtI [1]; read-out: MbtI IC50): 61.3 ± 5.3 µM

SMILES: CC=C(Oc1cccc(C(=O)O)c1O)C(=O)O [I, (1-carboxyprop-1-enyloxy)-2-hydroxybenzoic acid]
- IC50 (salicylate synthase MbtI [2]): 11.6 ± 2.4 µM

SMILES: CC1CC(=O)c2c(cc(O)cc2C(=O)O)O1 (stereo not shown) [compound 1, 7-Hydroxy-2-methyl-4-oxo-3,4-dihydro-2H-benzopyran-5-carboxylic acid]
- IC50 (salicylate synthase MbtI [1]; read-out: IC50): 55.8 ± 4.2 µM

SMILES: CC1CCc2c(cc(O)cc2C(=O)O)O1 (stereo not shown) [compound 5, 7-Hydroxy-2-methylchroman-5-carboxylic acid]
- remaining activity at 100 µM (salicylate synthase MbtI [3]): 50.1 ± 7.1%
